The values that follow come from patent publication US20100056508A1, “AMINE DERIVATIVES AND THEIR USE IN BETA-2-ADRENORECEPTOR MEDIATED DISEASES” (ASTRAZENECA AB, priority 2006, published 2010).

One test concerns the target T1, Adrenergic β2 (Homo sapiens, UniProt P07550).
T1 construct: Adherent H292 cells were removed from tissue culture flasks; endogenous in cells; host or cells: H292 cells
Kind of test: Adrenergic β2 mediated cAMP production in H292 cells (AlphaScreen cAMP detection). Type of test: cell-based. Also on record: key to β2 Int Act: fraction of formoterol maximum activity (formoterol = 1). The note with it: for β2 Int Act: Intrinsic Activity as a fraction relative to the maximum activity determined for formoterol; for EC50: cAMP production, 60 minutes at room temperature, 300 μM rolipram, read-out: β2 pEC50 (converted). The essentials: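 H292 cells pre-treated 10 min with rolipram (300 μM final), then given agonist for 60 min at room temperature in HBSS/10 mM HEPES pH 7.4, 1.6% DMSO final. Lysate cAMP measured by AlphaScreen against a cAMP standard curve. Four-parameter fit gives pEC50; intrinsic activity relative to formoterol maximum.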
A general note: Changes in cAMP serve as a functional read-out for many G protein-coupled receptors.

Test [1] has as its target T2, recombinant human α1D receptor (Homo sapiens, UniProt P25100).
T2 construct: expressed in transfected cells; host or cells: human embryonic kidney 293 cells (HEK93 [sic]), membranes
T2 sequence (P25100 1-572): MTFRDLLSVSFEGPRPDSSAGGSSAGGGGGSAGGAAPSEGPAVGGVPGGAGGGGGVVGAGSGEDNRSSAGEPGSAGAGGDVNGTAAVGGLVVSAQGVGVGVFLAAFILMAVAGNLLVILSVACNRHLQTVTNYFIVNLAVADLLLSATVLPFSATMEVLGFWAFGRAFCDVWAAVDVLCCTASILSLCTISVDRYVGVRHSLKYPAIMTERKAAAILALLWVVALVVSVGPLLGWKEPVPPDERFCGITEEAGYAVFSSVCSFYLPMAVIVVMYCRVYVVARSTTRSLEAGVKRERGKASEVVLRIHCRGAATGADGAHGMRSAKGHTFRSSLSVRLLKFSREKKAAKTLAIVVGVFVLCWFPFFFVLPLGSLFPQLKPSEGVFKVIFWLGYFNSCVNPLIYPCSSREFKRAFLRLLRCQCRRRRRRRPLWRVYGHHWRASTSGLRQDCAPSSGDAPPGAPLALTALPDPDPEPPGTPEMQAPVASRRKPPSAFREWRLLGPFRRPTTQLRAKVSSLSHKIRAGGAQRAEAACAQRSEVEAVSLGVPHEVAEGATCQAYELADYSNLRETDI
Kind of test: Adrenergic α1D selectivity assay, [3H]-prazosin binding to membranes. The note with it: inhibition of [3H]-prazosin binding, HEK cell membranes, read-out: α1 bind pIC50 (converted). The essentials: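 Competition binding on HEK293 membranes with recombinant human α1D receptor, 0.3 nM [3H]-prazosin, 50 mM HEPES/1 mM EDTA pH 7.4, 2 h at room temperature; filtration and scintillation counting. Non-specific binding defined with 10 μM BMY7378. pIC50 from four-parameter logistic fit of specific-binding inhibition.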

Structures can show the parent of a compound that is named as a salt.

T1 sequence (P07550 whole entry): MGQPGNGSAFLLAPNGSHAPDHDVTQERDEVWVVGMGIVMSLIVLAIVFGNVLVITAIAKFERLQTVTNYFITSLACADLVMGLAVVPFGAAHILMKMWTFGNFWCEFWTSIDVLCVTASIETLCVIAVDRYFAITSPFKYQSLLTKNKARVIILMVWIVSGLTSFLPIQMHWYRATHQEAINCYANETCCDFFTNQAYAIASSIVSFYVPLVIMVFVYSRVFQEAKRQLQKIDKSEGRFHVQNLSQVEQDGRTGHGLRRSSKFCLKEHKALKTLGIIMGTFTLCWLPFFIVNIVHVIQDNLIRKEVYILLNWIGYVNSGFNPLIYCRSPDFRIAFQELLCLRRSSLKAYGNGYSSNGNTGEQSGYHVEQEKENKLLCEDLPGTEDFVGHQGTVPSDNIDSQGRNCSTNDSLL

Turning to `CCCC[C@@H](C)N(CCNCCc1ccc(O)c2c1OCC(=O)N2)C(=O)CCNCCc1ccc(F)c(Cl)c1` [Example 48, (R)-3-(3-Chloro-4-fluorophenethylamino)-N-(hexan-2-yl)-N-(2-(2-(5-hydroxy-3-oxo-3,4-dihydro-2H-benzo[b][1,4]oxazin-8-yl)ethylamino)ethyl)propanamide bis(trifluoroacetate)], on Adrenergic β2, the “β2 Int Act” value is 0.91 and the EC50 is 2 nM. Further, the IC50 in test [1] was 126 nM.

For `CCCC[C@@H](C)N(CCNCCc1ccc(O)c2c1OCC(=O)N2)C(=O)CCNCCc1ccc(Cl)s1` [Example 49, (R)-3-(2-(5-Chlorothiophen-2-yl)ethylamino)-N-(hexan-2-yl)-N-(2-(2-(5-hydroxy-3-oxo-3,4-dihydro-2H-benzo[b][1,4]oxazin-8-yl)ethylamino)ethyl)propanamide bis(trifluoroacetate)], at Adrenergic β2, the “β2 Int Act” value is reported as 1.01 and the EC50 was 2.51 nM. In addition, in test [1], the IC50 is 316 nM.

On to `CCCC[C@@H](C)N(CCNCCc1ccc(O)c2c1OCC(=O)N2)C(=O)CCNCCc1cc(F)cc(Cl)c1` [Example 50, (R)-3-(3-Chloro-5-fluorophenethylamino)-N-(hexan-2-yl)-N-(2-(2-(5-hydroxy-3-oxo-3,4-dihydro-2H-benzo[b][1,4]oxazin-8-yl)ethylamino)ethyl)propanamide bis(trifluoroacetate)], for which, at Adrenergic β2, the “β2 Int Act” value was 0.89 and the EC50 is 1.26 nM. Moreover, the IC50 in test [1] is 200 nM.

Turning to `CCCC[C@@H](C)N(CCNCCc1ccc(O)c2c1OCC(=O)N2)C(=O)CCNCCc1cc(F)cc(F)c1` [Example 51, (R)-3-(3,5-Difluorophenethylamino)-N-(hexan-2-yl)-N-(2-(2-(5-hydroxy-3-oxo-3,4-dihydro-2H-benzo[b][1,4]oxazin-8-yl)ethylamino)ethyl)propanamide bis(trifluoroacetate)], at Adrenergic β2, the “β2 Int Act” value stood at 0.94 and the EC50 is 1.58 nM. Moreover, the IC50 in test [1] is 316 nM.

As to `CCCC[C@@H](C)N(CCNCCc1ccc(O)c2c1OCC(=O)N2)C(=O)CCNCCc1ccc(F)c(F)c1` [Example 52, (R)-3-(3,4-Difluorophenethylamino)-N-(hexan-2-yl)-N-(2-(2-(5-hydroxy-3-oxo-3,4-dihydro-2H-benzo[b][1,4]oxazin-8-yl)ethylamino)ethyl)propanamide bis(trifluoroacetate)], on Adrenergic β2, the “β2 Int Act” value is given as 0.95 and the EC50 is 10 nM. Further, the IC50 in test [1] was 200 nM.

`CCCC[C@@H](C)N(CCNCCc1ccc(O)c2c1OCC(=O)N2)C(=O)CCNCCc1cccc(F)c1F` [Example 53, (R)-3-(2,3-Difluorophenethylamino)-N-(hexan-2-yl)-N-(2-(2-(5-hydroxy-3-oxo-3,4-dihydro-2H-benzo[b][1,4]oxazin-8-yl)ethylamino)ethyl)propanamide bis(trifluoroacetate)]: on Adrenergic β2, the “β2 Int Act” value was determined as 0.99 and the EC50 was 6.31 nM. In addition, in test [1], the IC50 is 200 nM.

As for `CCCC[C@@H](C)N(CCNCCc1ccc(O)c2c1OCC(=O)N2)C(=O)CCNCCc1cc(F)ccc1F` [Example 54, (R)-3-(2,5-Difluorophenethylamino)-N-(hexan-2-yl)-N-(2-(2-(5-hydroxy-3-oxo-3,4-dihydro-2H-benzo[b][1,4]oxazin-8-yl)ethylamino)ethyl)propanamide bis(trifluoroacetate)], on Adrenergic β2, the “β2 Int Act” value is reported as 0.96 and the EC50 was 5.01 nM. Besides, in test [1], the IC50 was 79.4 nM.

For the molecule `CCCC[C@@H](C)N(CCNCCc1ccc(O)c2c1OCC(=O)N2)C(=O)CCNCCc1ccc(Cl)c(Cl)c1` [Example 55, (R)-3-(3,4-Dichlorophenethylamino)-N-(hexan-2-yl)-N-(2-(2-(5-hydroxy-3-oxo-3,4-dihydro-2H-benzo[b][1,4]oxazin-8-yl)ethylamino)ethyl)propanamide bis(trifluoroacetate)], on Adrenergic β2, the “β2 Int Act” value is reported as 0.92 and the EC50 is 31.6 nM. Further, the IC50 in test [1] was 251 nM.

Turning to `CCCC[C@@H](C)N(CCNCCc1ccc(O)c2c1OCC(=O)N2)C(=O)CCNCCc1cc(C)ccc1F` [Example 56, (R)-3-(2-Fluoro-5-methylphenethylamino)-N-(hexan-2-yl)-N-(2-(2-(5-hydroxy-3-oxo-3,4-dihydro-2H-benzo[b][1,4]oxazin-8-yl)ethylamino)ethyl)propanamide bis(trifluoroacetate)], on Adrenergic β2, the “β2 Int Act” value turned out to be 0.91 and the EC50 is 7.94 nM. Further, in test [1], the IC50 was 31.6 nM.

As to `CCCC[C@@H](C)N(CCNCCc1ccc(O)c2c1OCC(=O)N2)C(=O)CCNCCc1cc(F)ccc1C` [Example 57, (R)-3-(5-Fluoro-2-methylphenethylamino)-N-(hexan-2-yl)-N-(2-(2-(5-hydroxy-3-oxo-3,4-dihydro-2H-benzo[b][1,4]oxazin-8-yl)ethylamino)ethyl)propanamide bis(trifluoroacetate)], on Adrenergic β2, the “β2 Int Act” value was 0.91 and the EC50 was 7.94 nM. Also, the IC50 in test [1] is 100 nM.

For `CC[C@@H](C)N(CCNCCc1ccc(O)c2c1OCC(=O)N2)C(=O)CCNCCc1ccc(Cl)c(Cl)c1` [Example 58, (R)—N-sec-Butyl-3-(3,4-dichlorophenethylamino)-N-(2-(2-(5-hydroxy-3-oxo-3,4-dihydro-2H-benzo[b][1,4]oxazin-8-yl)ethylamino)ethyl)propanamide dihydrochloride], on Adrenergic β2, the “β2 Int Act” value was 0.91 and the EC50 is 7.94 nM. In addition, the IC50 in test [1] is 100 nM.

For the molecule `CC(C)[C@@H](C)N(CCNCCc1ccc(O)c2c1OCC(=O)N2)C(=O)CCNCCc1ccc(Cl)c(Cl)c1` [Example 59, (R)-3-(3,4-Dichlorophenethylamino)-N-(2-(2-(5-hydroxy-3-oxo-3,4-dihydro-2H-benzo[b][1,4]oxazin-8-yl)ethylamino)ethyl)-N-(3-methylbutan-2-yl)propanamide dihydrochloride], at Adrenergic β2, the “β2 Int Act” value was found to be 0.87 and the EC50 was 3.98 nM. Besides, in test [1], the IC50 was 200 nM.

Regarding `C[C@H](C1CCCCC1)N(CCNCCc1ccc(O)c2c1OCC(=O)N2)C(=O)CCNCCc1ccccc1` [Example 61, (R)—N-(1-Cyclohexylethyl)-N-(2-(2-(5-hydroxy-3-oxo-3,4-dihydro-2H-benzo[b][1,4]oxazin-8-yl)ethylamino)ethyl)-3-(phenethylamino)propanamide bis(trifluoroacetate)], at Adrenergic β2, the “β2 Int Act” value was 0.84 and the EC50 is 3.16 nM. The IC50 in test [1] was 20 nM.

Turning to `Cc1cc(CCNCCC(=O)N(CCNCCc2ccc(O)c3c2OCC(=O)N3)C2CCCCCC2)ccc1F` [Example 62, N-Cycloheptyl-3-(4-fluoro-3-methylphenethylamino)-N-(2-(2-(5-hydroxy-3-oxo-3,4-dihydro-2H-benzo[b][1,4]oxazin-8-yl)ethylamino)ethyl)propanamide bis(trifluoroacetate)], at Adrenergic β2, the “β2 Int Act” value was 0.86 and the EC50 is 3.98 nM. Further, the IC50 in test [1] was 39.8 nM.

Regarding `O=C1COc2c(CCNCCN(C(=O)CCNCCc3ccc(Cl)cc3)C3CCCCCC3)ccc(O)c2N1` [Example 63, 3-(4-Chlorophenethylamino)-N-cycloheptyl-N-(2-(2-(5-hydroxy-3-oxo-3,4-dihydro-2H-benzo[b][1,4]oxazin-8-yl)ethylamino)ethyl)propanamide bis(trifluoroacetate)], at Adrenergic β2, the “β2 Int Act” value turned out to be 0.79 and the EC50 is 2 nM. Further, the IC50 in test [1] is 100 nM.

Take `O=C1COc2c(CCNCCN(C(=O)CCNCCc3cc(F)ccc3F)C3CCCCCC3)ccc(O)c2N1` [Example 64, N-Cycloheptyl-3-(2,5-difluorophenethylamino)-N-(2-(2-(5-hydroxy-3-oxo-3,4-dihydro-2H-benzo[b][1,4]oxazin-8-yl)ethylamino)ethyl)propanamide bis(trifluoroacetate)]: at Adrenergic β2, the “β2 Int Act” value came out at 0.88 and the EC50 is 0.631 nM. Further, in test [1], the IC50 was 63.1 nM.

For the molecule `O=C1COc2c(CCNCCN(C(=O)CCNCCc3cc(F)cc(F)c3)C3CCCCCC3)ccc(O)c2N1` [Example 65, N-Cycloheptyl-3-(3,5-difluorophenethylamino)-N-(2-(2-(5-hydroxy-3-oxo-3,4-dihydro-2H-benzo[b][1,4]oxazin-8-yl)ethylamino)ethyl)propanamide bis(trifluoroacetate)], at Adrenergic β2, the “β2 Int Act” value came to 0.93 and the EC50 is 1.58 nM. Also, in test [1], the IC50 was 398 nM.
